Measured values: patent publication US20240247080A1, “GLP1/GIP/NPY2 RECEPTOR TRIPLE AGONISTS” (Boehringer Ingelheim International GmbH, priority 2022, published 2024)
Read-outs that look alike come from different tables or passages of the source. Starred links: 1 amine or outer side, 2 acyl side, 3 side chain; linkers in the order of their positions; H or OH if unused. Positions of bridges follow the written chain, without caps; N, C: chain ends. Non-standard residues stand in square brackets, D forms with d. Groups on a side chain read outwards from the residue. Chains are numbered I, II in the order given. No end group written: not given here. *: point of attachment. C20 diacid = O=C(O)CCCCCCCCCCCCCCCCCCC(=O)*; C18 diacid = O=C(O)CCCCCCCCCCCCCCCCC(=O)*; γGlu = O=C(O)[C@H](CCC(=O)[*:2])N[*:1]; εLys = N[C@@H](CCCCN[*:1])C(=O)[*:2]; β3hQ = NC(=O)CC[C@H](N)CC(=O)O; AEEA = NCCOCCOCC(=O)O; Aib = CC(C)(N)C(=O)O

Assays:
Format in all cases: cell-based
Conditions in all cases: CreLuc reporter gene assay
hGIPR = molecular target: T1, hGIPR (Homo sapiens, UniProt P48546); experiment: hGIPR CreLuc reporter gene assay in 0.5% and 100% plasma
T1 construct: expressed in transfected cells; host or cells: CHO cells carrying a CRE-luciferase reporter gene
T1 sequence (P48546 22-466): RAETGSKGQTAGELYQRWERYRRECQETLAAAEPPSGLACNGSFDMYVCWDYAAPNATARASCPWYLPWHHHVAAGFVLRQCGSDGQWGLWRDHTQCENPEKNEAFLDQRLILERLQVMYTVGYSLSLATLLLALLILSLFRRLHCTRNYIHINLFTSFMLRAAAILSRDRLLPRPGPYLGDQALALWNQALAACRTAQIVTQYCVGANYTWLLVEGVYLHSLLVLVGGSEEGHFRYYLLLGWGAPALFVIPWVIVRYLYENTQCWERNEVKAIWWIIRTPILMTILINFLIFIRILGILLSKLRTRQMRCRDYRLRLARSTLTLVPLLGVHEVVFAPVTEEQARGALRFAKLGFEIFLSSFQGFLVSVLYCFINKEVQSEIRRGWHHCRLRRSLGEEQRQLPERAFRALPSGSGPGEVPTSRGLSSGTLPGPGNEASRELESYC
How it was run: (§1)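 Agonist EC50s came from 8-concentration curves over four decades, fitted by non-linear variable-slope regression of CRE-driven luciferase luminescence. Cells were exposed 4 h at 37 °C, in buffer with 0.5% human plasma or in 100% plasma; GIPR was expressed in CHO cells, GLP-1R and NPY2R in HEK cells.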

hGLP1R = molecular target: T2, hGLP1R (Homo sapiens, UniProt P43220); experiment: hGLP1R CreLuc reporter gene assay in 0.5% and 100% plasma
T2 construct: expressed in transfected cells; host or cells: HEK-293 cells carrying a CRE-luciferase reporter gene
How it was run: as §1

hNPY2R = molecular target: T3, hNPY2R (Homo sapiens, UniProt P49146); experiment: hNPY2R CreLuc reporter gene assay in 0.5% and 100% plasma
T3 construct: expressed in transfected cells; host or cells: HEK-293 cells carrying a CRE-luciferase reporter gene
T3 sequence (P49146 1-381): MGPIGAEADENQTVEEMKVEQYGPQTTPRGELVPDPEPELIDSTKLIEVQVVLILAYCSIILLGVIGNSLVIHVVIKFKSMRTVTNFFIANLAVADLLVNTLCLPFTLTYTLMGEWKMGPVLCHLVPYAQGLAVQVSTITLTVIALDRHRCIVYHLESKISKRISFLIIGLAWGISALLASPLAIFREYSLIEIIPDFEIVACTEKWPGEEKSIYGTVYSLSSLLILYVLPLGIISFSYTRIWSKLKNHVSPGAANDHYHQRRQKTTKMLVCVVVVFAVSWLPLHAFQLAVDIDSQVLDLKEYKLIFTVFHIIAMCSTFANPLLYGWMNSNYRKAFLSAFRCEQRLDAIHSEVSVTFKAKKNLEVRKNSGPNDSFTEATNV
How it was run: as §1

[1] = 0.5% human plasma, read-out: hGIPR 0.5% hP
[2] = 100% human plasma, read-out: hGIPR 100% hP
[3] = 0.5% human plasma, read-out: hGLP1R 0.5% hP
[4] = 0.5% human plasma, read-out: hNPY2R 0.5% hP
[5] = 100% human plasma, read-out: hGLP1R 100% hP
[6] = 100% human plasma, read-out: hNPY2R 100% hP

T2 sequence (P43220 24-463): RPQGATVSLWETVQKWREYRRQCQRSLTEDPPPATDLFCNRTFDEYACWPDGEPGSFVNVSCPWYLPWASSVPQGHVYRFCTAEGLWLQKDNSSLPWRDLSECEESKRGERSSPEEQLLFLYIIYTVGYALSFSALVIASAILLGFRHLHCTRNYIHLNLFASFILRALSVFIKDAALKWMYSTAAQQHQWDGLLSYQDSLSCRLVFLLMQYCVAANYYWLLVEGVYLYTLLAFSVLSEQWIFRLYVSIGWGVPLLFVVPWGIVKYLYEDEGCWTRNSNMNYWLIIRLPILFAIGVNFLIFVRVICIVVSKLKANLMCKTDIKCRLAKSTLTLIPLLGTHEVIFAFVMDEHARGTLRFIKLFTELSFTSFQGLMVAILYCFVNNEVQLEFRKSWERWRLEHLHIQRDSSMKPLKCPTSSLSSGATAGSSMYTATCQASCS

| EC50 (hGIPR; [1]) [nM] | EC50 (hGIPR; [2]) [nM] | EC50 (hGLP1R; [3]) [nM] | EC50 (hNPY2R; [4]) [nM] | EC50 (hGLP1R; [5]) [nM] | EC50 (hNPY2R; [6]) [nM] | Substance |
| --- | --- | --- | --- | --- | --- | --- |
| 0.23 | 0.63 | 0.13 | 16.9 | – | – | H-Y[Aib]EGTFTSDYSI[Aib]LEEEAQ[Aib]AFVQWLIK([εLys-εLys-γGlu-γGlu-γGlu-γGlu-γGlu-C20 diacid])GGPSSGASLRHYYNWLTRQRY-NH2 [Compound 7, Y-Aib-E-G-T-F-T-S-D-Y-S-I-Aib-L-E-E-E-A-Q-Aib-A-F-V-Q-W-L-I-K(1,3)-GGPSSGASLRHYYNWLTRQRY-NH2.C20DA-gGlu-gGlu-gGlu-gGlu-gGlu-eLys-eLys(1,2)] |
| 0.33 | 1.97 | 0.14 | 10.7 | 6.74 | – | I: Y[Aib]EGTFTSDYSI[Aib]LEKQAQ[Aib]AFVQWLIKGGPSEGASLRHYYNWLTRQRY-NH2 / II: {C20 diacid}-EEEEE[εLys] (amide I:28-II:C) [Compound 240, Y-Aib-E-G-T-F-T-S-D-Y-S-I-Aib-L-E-K-Q-A-Q-Aib-A-F-V-Q-W-L-I-K(1,3)-GGPSEGASLRHYYNWLTRQRY-NH2.C20DA-E-E-E-E-E-eLys(1,2)] |
| 0.35 | – | 0.11 | 13.6 | 4.76 | – | H-Y[Aib]EGTFTSDYSI[Aib]LEKQAQ[Aib]AFVQWLIK([AEEA-AEEA-Glu-Glu-Glu-Glu-C20 diacid])GGPSEGASLRHYYNWLTRQRY-NH2 [Compound 239, Y-Aib-E-G-T-F-T-S-D-Y-S-I-Aib-L-E-K-Q-A-Q-Aib-A-F-V-Q-W-L-I-K(1,3)-GGPSEGASLRHYYNWLTRQRY-NH2.C20DA-E-E-E-E-OEG-OEG(1,2)] |
| 0.12 | 1.5 | 0.32 | 15.8 | – | – | H-Y[Aib]EGTFTSDYSI[Aib]LEKQAQ[Aib]AFVEWLIK([εLys-γGlu-γGlu-γGlu-γGlu-γGlu-C18 diacid])GGPSEPASLRHYYNWLTRQRY-NH2 [Compound 263, Y-Aib-E-G-T-F-T-S-D-Y-S-I-Aib-L-E-K-Q-A-Q-Aib-A-F-V-E-W-L-I-K(1,3)-GGPSEPASLRHYYNWLTRQRY-NH2.C18DA-gGlu-gGlu-gGlu-gGlu-gGlu-eLys(1,2)] |
| 0.21 | 1.72 | 0.17 | 16.2 | – | 53.1 | H-Y[Aib]EGTFTSDYSI[Aib]LEKQAQ[Aib]AFVEWLIK([εLys-γGlu-γGlu-γGlu-γGlu-γGlu-γGlu-C20 diacid])GGPSSGATLRHYYNWLTRQRY-NH2 [Compound 91, Y-Aib-E-G-T-F-T-S-D-Y-S-I-Aib-L-E-K-Q-A-Q-Aib-A-F-V-E-W-L-I-K(1,3)-GGPSSGATLRHYYNWLTRQRY-NH2.C20DA-gGlu-gGlu-gGlu-gGlu-gGlu-gGlu-eLys(1,2)] |
| 0.07 | 0.81 | 0.11 | > 100 | – | > 1000 | H-Y[Aib]EGTFTSDYSI[Aib]LEKQAQ[Aib]AFVEWLIK([εLys-γGlu-γGlu-γGlu-γGlu-γGlu-γGlu-C20 diacid])GGPSSGASLRHYYNWLTR[β3hQ]RY-NH2 [Compound 208, Y-Aib-E-G-T-F-T-S-D-Y-S-I-Aib-L-E-K-Q-A-Q-Aib-A-F-V-E-W-L-I-K(1,3)-G-G-P-S-S-G-A-S-L-R-H-Y-Y-N-W-L-T-R-bHGln-R-Y-NH2.C20DA-gGlu-gGlu-gGlu-gGlu-gGlu-gGlu-eLys(1,2)] |
| 0.07 | 1.25 | 0.12 | 12.5 | – | 36.8 | H-Y[Aib]EGTFTSDYSI[Aib]LEKQAQ[Aib]AFVEWLIK([εLys-γGlu-γGlu-γGlu-γGlu-γGlu-γGlu-C20 diacid])GGPSSGES[Aib]RHYYNWLTRQRY-NH2 [Compound 49, Y-Aib-E-G-T-F-T-S-D-Y-S-I-Aib-L-E-K-Q-A-Q-Aib-A-F-V-E-W-L-I-K(1,3)-G-G-P-S-S-G-E-S-Aib-R-H-Y-Y-N-W-L-T-R-Q-R-Y-NH2.C20DA-gGlu-gGlu-gGlu-gGlu-gGlu-gGlu-eLys(1,2)] |
